Where a name gives a salt, the structure may show the parent alone. Values belong to the compound of their own block, whether it stands above or below them.
Tests used:
[1] = Dynamic water vapor sorption measurements (hygroscopicity); type: physicochemical; conditions: for H2O content at 50% r.h. / H2O content at 90% r.h.: dynamic water vapor sorption; for H2O content at 90% r.h.: 90% relative humidity; for hygroscopic behaviour (water adsorption, in words): identical measurement conditions, high relative humidities
Text: Amorphous or mesomorphous forms of a compound can have a very much stronger tendency toward hygroscopicity than crystalline forms. The sitagliptin fumarate compounds described here are characterized in that they have good hygroscopic properties, i.e. absorb little water at high relative humidity. This is evident from table 1 below, which compares the water contents of the crystalline fumarate form A and crystalline hydrochloride at 50% and 90% relative humidity. The data originate from dynamic water vapor adsorption measurements. The water vapor sorption measurement is a suitable method for investigating the hygroscopic properties of solid substances. Water vapor sorption measurements can be carried out in different ways. In general, in this connection, a small sample of ca. 10-30 mg is introduced into a microbalance in a suitable sample carrier. The sample is then exposed to different relative humidities in accordance with a defined program, the change in the sample mass being simultaneously recorded over the time. As a result, insights into the hygroscopic behavior of a substance can be obtained.
Dynamic water vapor adsorption measurements were carried out using an SPS11-100n instrument, manufactured by “Projekt Messtechnik” in Ulm, Germany. For this, ca. 20 mg of the sample were weighed into an aluminum support and this was inserted into the measurement chamber of the instrument. The sample was then subjected to preselected relative humidities in accordance with a defined program, the change in mass being determined over the time. The following measurement program was used: 50% r.h. constant for two hours, then changing the relative humidity to 0% r.h., then changing the relative humidity to 96% r.h., constant at 96% r.h. for four hours and then changing the relative humidity to 50% r.h. and then constant at 50% r.h. for one hour. The change rates set were in each case 5% per hour.

[2] = at temperatures above 40° C.; hydrate of WO 2005/003135; cited from earlier work
[3] = hydrochloride of WO 03/004498 A1; cited from earlier work

water content at 50% relative humidity ([1]; 50% relative humidity): ca. 0.3% | H2O content at 50% r.h. ([1]; 50% relative humidity, listed as Crystalline sitagliptin fumarate form A): 0.25% | H2O content at 90% r.h. ([1]; listed as Crystalline sitagliptin fumarate form A): 1.33% | additional water absorbed compared with 50% relative humidity ([1]; after four hours at 96% relative humidity): ca. 1% | hygroscopic behaviour (water adsorption, in words) [1]: absorbs only a small amount of water
Compound: N[C@@H](CC(=O)N1CCn2c(nnc2C(F)(F)F)C1)Cc1cc(F)c(F)cc1F [form A, 7-[(3R)-3-amino-1-oxo-4-(2,4,5-trifluorophenyl)butyl]-5,6,7,8-tetrahydro-3-(trifluoromethyl)-1,2,4-triazolo[4,3-a]pyrazine]

Compound: N[C@@H](CC(=O)N1CCn2c(nnc2C(F)(F)F)C1)Cc1cc(F)c(F)cc1F.O=P(O)(O)O [sitagliptin dihydrogenphosphate salt]
phase stability (in words) [2]: phase-unstable

H2O content at 50% r.h. ([1]; 50% relative humidity, hydrochloride): >2.7%^ | H2O content at 90% r.h. ([1]; hydrochloride): >3.6%^ | hygroscopic behaviour (water adsorption, in words) ([1]; listed as crystalline sitagliptin hydrochloride monohydrate, hydrochloride): adsorbs significantly more water
Compound: N[C@@H](CC(=O)N1CCn2c(nnc2C(F)(F)F)C1)Cc1cc(F)c(F)cc1F [sitagliptin hydrochloride]
hygroscopicity (in words) [3]: hygroscopic
